Measurements published in patent US6589993B2, “Treating vancomycin-intermediates and multiresistant staphylococci infection with thiamphenicol or a salt thereof” (Zambon Group S.p.A., priority 2000, dated 2003).
≈ marks a conversion by molar mass, not a printed value. Read-outs that look alike come from different tables or passages of the source.

Key:
[1] = system: S. aureus Met-R multiresistant strains; experiment: MIC determination (NCCLS broth microdilution), methicillin-resistant multiresistant S. aureus strains; format: cell-based, Staphylococcus aureus; settings: Staphylococcus aureus; for MIC: antibiotype Oxa, Ery, read-out: MIC
Method: (§1) The MICs of thiamphenicol and of other antibiotics was obtained by using the method proposed by NCCLS (National Committee for Clinical Laboratory Standards, 1999).
(§2) Various antibiotic concentrations were added to bacteria in exponental growth (final inoculum 5×10^5 […]); dilution in Mb (cation-supplemented Mueller-Hinton broth) and distribution on a microplate by using an automatic diluting machine Biomek 1000 (Beckman, USA). MHb charged with 2% NaCl was used to test the methicillin activity.
(§3) The antibiotic concentration which hinders a visible growth after 18-24 hours of incubation at 37° C., was registered as MIC.
(§4) S. aureus ATCC 29213 was used as quality control strain.

[2] = system: S. aureus vancomycin-intermediates (VISA) Met-R strains; experiment: MIC determination (NCCLS broth microdilution), VISA Met-R strains; format: cell-based, Staphylococcus aureus; settings: for MIC: antibiotype Oxa, Cip, Clin, Ery
Method: as §1, §2, §3, §4

[3] = Strain 30, Cip, Clin, Gm, SXT, Dox
[4] = Strain 32, Cip, Clin, Gm, SXT, Rif
[5] = Strain 44, Cip, Clin, Gm, Rif, Dox
[6] = Strain 45, Cip, Clin, Gm, Rif, Dox, Fos
[7] = Strain 50, Cip, Clin, Gm, Rif, Dox
[8] = Staphylococcus aureus, Strain 51 VISA, read-out: MIC

SMILES: CC[C@H]1OC(=O)[C@H](C)[C@@H](O[C@H]2C[C@@](C)(OC)[C@@H](O)[C@H](C)O2)[C@H](C)[C@@H](O[C@@H]2O[C@H](C)C[C@H](N(C)C)[C@H]2O)[C@](C)(O)C[C@@H](C)C(=O)[C@H](C)[C@@H](O)[C@]1(C)O [Erythromycin, erythromycin]
- MIC ([1]; Strain 1, Cip, Clin, Gm): > 64 µg/mL
- MIC ([1]; Strain 2, Clin, Fos): > 64 µg/mL
- MIC ([1]; Strain 3, Cip, Clin, Gm): > 64 µg/mL
- MIC ([1]; Strain 4, Cip, Gm): > 64 µg/mL
- MIC ([1]; Strain 5, Cip, Clin): > 64 µg/mL
- MIC ([1]; Strain 6, Clin, Gm): > 64 µg/mL
- MIC ([1]; Strain 7, Cip, Gm): > 64 µg/mL
- MIC ([1]; Strain 8, Cip, Clin): > 64 µg/mL
- MIC ([1]; Strain 9, Cip, Clin, Gm): > 64 µg/mL
- MIC ([1]; Strain 10, Cip, Clin, Gm): > 64 µg/mL
- MIC ([1]; Strain 11, Clin, Rif): > 64 µg/mL
- MIC ([1]; Strain 12, Cip, Clin): > 64 µg/mL
- MIC ([1]; Strain 13, Cip, Clin): > 64 µg/mL
- MIC ([1]; Strain 14, Clin, Cip): > 64 µg/mL
- MIC ([1]; Strain 15, Cip, Clin, Gm): > 64 µg/mL
- MIC ([1]; Strain 16, Cip, Clin): > 64 µg/mL
- MIC ([1]; Strain 17, Cip, Clin): > 64 µg/mL
- MIC ([1]; Strain 18, Cip, Clin, Gm): > 64 µg/mL
- MIC ([1]; Strain 19, Cip, Clin, Gm): > 64 µg/mL
- MIC ([1]; Strain 20, Cip, Clin, Gm): > 64 µg/mL
- MIC ([1]; Strain 21, Cip, Clin, Gm): > 64 µg/mL
- MIC ([1]; Strain 22, Cip, Clin): > 64 µg/mL
- MIC ([1]; Strain 23, Cip, Clin, Gm): > 64 µg/mL
- MIC ([1]; Strain 24, Cip, Clin, Gm): > 64 µg/mL
- MIC ([1]; Strain 25, Cip, Clin, Gm): > 64 µg/mL
- MIC ([1]; Strain 26, Cip, Clin, Fos, Gm): > 64 µg/mL
- MIC ([1]; Strain 27, Cip, Clin, Fos, Gm): > 64 µg/mL
- MIC ([1]; Strain 28, Cip, Clin, Gm): > 64 µg/mL
- MIC ([1]; Strain 29, Clin, Fos): > 64 µg/mL
- MIC [1, 3]: > 64 µg/mL
- MIC ([1]; Strain 31, Cip, Clin, Fox, Gm): > 64 µg/mL
- MIC [1, 4]: > 64 µg/mL
- MIC ([1]; Strain 33, Cip, Clin, Gm): > 64 µg/mL
- MIC ([1]; Strain 34, Cip, Clin, Gm): > 64 µg/mL
- MIC ([1]; Strain 35, Cip, Clin, Gm): > 64 µg/mL
- MIC ([1]; Strain 36, Cip, Clin, Fos): > 64 µg/mL
- MIC ([1]; Strain 37, Cip, Clin, Fos, Gm): 64 µg/mL (≈ 87.2 µM)
- MIC ([1]; Strain 38, Cip, Gm): > 64 µg/mL
- MIC ([1]; Strain 39, Cip, Clin, Fos, Gm): 64 µg/mL (≈ 87.2 µM)
- MIC ([1]; Strain 40, Cip, Clin, Gm): > 64 µg/mL
- MIC ([1]; Strain 41, Cip, Clin): > 64 µg/mL
- MIC ([1]; Strain 42, Cip, Clin, Gm): > 64 µg/mL
- MIC ([1]; Strain 43, Cip, Clin, Gm): > 64 µg/mL
- MIC [1, 5]: > 64 µg/mL
- MIC [1, 6]: > 64 µg/mL
- MIC ([1]; Strain 46, Clin, Fos): > 64 µg/mL
- MIC ([1]; Strain 47, Cip, Clin, Gm): > 64 µg/mL
- MIC ([1]; Strain 48, Cip, Clin): > 64 µg/mL
- MIC ([1]; Strain 49, Cip, Gm): > 64 µg/mL
- MIC [1, 7]: > 64 µg/mL
- MIC50 ([1]; S. aureus (50) Met-R, read-out: MIC 50%): > 64 µg/mL
- MIC90 ([1]; S. aureus (50) Met-R, read-out: MIC 90%): > 64 µg/mL
- MIC [2, 8]: > 64 µg/mL
- MIC ([2]; Strain 52 VISA): >64 µg/mL
- MIC Range ([2]; VISA (2) Met-R): >64 µg/mL

SMILES: COc1cccc(OC)c1C(=O)N[C@@H]1C(=O)N2[C@@H]1SC(C)(C)[C@@H]2C(=O)O [Meth, methicilline]
- MIC ([1]; Strain 1, Cip, Clin, Gm): > 64 µg/mL
- MIC ([1]; Strain 2, Clin, Fos): > 64 µg/mL
- MIC ([1]; Strain 3, Cip, Clin, Gm): > 64 µg/mL
- MIC ([1]; Strain 4, Cip, Gm): > 64 µg/mL
- MIC ([1]; Strain 5, Cip, Clin): > 64 µg/mL
- MIC ([1]; Strain 6, Clin, Gm): > 64 µg/mL
- MIC ([1]; Strain 7, Cip, Gm): 32 µg/mL (≈ 84.1 µM)
- MIC ([1]; Strain 8, Cip, Clin): > 64 µg/mL
- MIC ([1]; Strain 9, Cip, Clin, Gm): > 64 µg/mL
- MIC ([1]; Strain 10, Cip, Clin, Gm): > 64 µg/mL
- MIC ([1]; Strain 11, Clin, Rif): > 64 µg/mL
- MIC ([1]; Strain 12, Cip, Clin): > 64 µg/mL
- MIC ([1]; Strain 13, Cip, Clin): > 64 µg/mL
- MIC ([1]; Strain 14, Clin, Cip): > 64 µg/mL
- MIC ([1]; Strain 15, Cip, Clin, Gm): > 64 µg/mL
- MIC ([1]; Strain 16, Cip, Clin): > 64 µg/mL
- MIC ([1]; Strain 17, Cip, Clin): 64 µg/mL (≈ 168 µM)
- MIC ([1]; Strain 18, Cip, Clin, Gm): > 64 µg/mL
- MIC ([1]; Strain 19, Cip, Clin, Gm): > 64 µg/mL
- MIC ([1]; Strain 20, Cip, Clin, Gm): > 64 µg/mL
- MIC ([1]; Strain 21, Cip, Clin, Gm): > 64 µg/mL
- MIC ([1]; Strain 22, Cip, Clin): > 64 µg/mL
- MIC ([1]; Strain 23, Cip, Clin, Gm): > 64 µg/mL
- MIC ([1]; Strain 24, Cip, Clin, Gm): > 64 µg/mL
- MIC ([1]; Strain 25, Cip, Clin, Gm): > 64 µg/mL
- MIC ([1]; Strain 26, Cip, Clin, Fos, Gm): > 64 µg/mL
- MIC ([1]; Strain 27, Cip, Clin, Fos, Gm): > 64 µg/mL
- MIC ([1]; Strain 28, Cip, Clin, Gm): > 64 µg/mL
- MIC ([1]; Strain 29, Clin, Fos): > 64 µg/mL
- MIC [1, 3]: 64 µg/mL (≈ 168 µM)
- MIC ([1]; Strain 31, Cip, Clin, Fox, Gm): > 64 µg/mL
- MIC [1, 4]: > 64 µg/mL
- MIC ([1]; Strain 33, Cip, Clin, Gm): > 64 µg/mL
- MIC ([1]; Strain 34, Cip, Clin, Gm): > 64 µg/mL
- MIC ([1]; Strain 35, Cip, Clin, Gm): > 64 µg/mL
- MIC ([1]; Strain 36, Cip, Clin, Fos): > 64 µg/mL
- MIC ([1]; Strain 37, Cip, Clin, Fos, Gm): 64 µg/mL (≈ 168 µM)
- MIC ([1]; Strain 38, Cip, Gm): > 64 µg/mL
- MIC ([1]; Strain 39, Cip, Clin, Fos, Gm): 64 µg/mL (≈ 168 µM)
- MIC ([1]; Strain 40, Cip, Clin, Gm): > 64 µg/mL
- MIC ([1]; Strain 41, Cip, Clin): > 64 µg/mL
- MIC ([1]; Strain 42, Cip, Clin, Gm): > 64 µg/mL
- MIC ([1]; Strain 43, Cip, Clin, Gm): > 64 µg/mL
- MIC [1, 5]: 64 µg/mL (≈ 168 µM)
- MIC [1, 6]: > 64 µg/mL
- MIC ([1]; Strain 46, Clin, Fos): > 64 µg/mL
- MIC ([1]; Strain 47, Cip, Clin, Gm): > 64 µg/mL
- MIC ([1]; Strain 48, Cip, Clin): 64 µg/mL (≈ 168 µM)
- MIC ([1]; Strain 49, Cip, Gm): > 64 µg/mL
- MIC [1, 7]: > 64 µg/mL
- MIC [2, 8]: > 64 µg/mL
- MIC ([2]; Strain 52 VISA): >64 µg/mL
